Test results published in ChEMBL document CHEMBL1201862, “PubChem BioAssay data set” (2004).
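Compound exposure: 48 hours, 5 concentrations, 96-well plates. At the GI50, growth is halved.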 Active and inactive are the calls of the source. Cut-off read from the data, not from the text of the source: active = GI50 up to about 1.1 µM and inactive = higher.

Key:
Assay in all cases: NCI anticancer screen, dose series, 48 h
OVCAR-8 = system: OVCAR-8
HCT-116 = system: HCT-116
NCI-H23 = system: NCI-H23
NCI-H460 = system: NCI-H460
NCI-H522 = system: NCI-H522
M14 = system: M14
UACC-62 = system: UACC-62
RPMI-8226 = system: RPMI-8226
HOP-62 = system: HOP-62
HCC 2998 = system: HCC 2998
COLO 205 = system: COLO 205
U-251 = system: U-251
BT-549 = system: BT-549
MCF7 = system: MCF7
SK-MEL-5 = system: SK-MEL-5
DU-145 = system: DU-145
K562 = system: K562
RXF 393 = system: RXF 393
Hs-578T = system: Hs-578T
LOX IMVI = system: LOX IMVI

Measured: GI50

CCOc1ccc(/C=C2\N=C(c3ccc([N+](=O)[O-])cc3)OC2=O)cc1
inactive: OVCAR-8 > 100 µM | HCT-116 > 100 µM | NCI-H23 > 100 µM | NCI-H460 > 100 µM | NCI-H522 > 100 µM | M14 > 100 µM | UACC-62 > 100 µM | RPMI-8226 > 100 µM | HOP-62 > 100 µM | HCC 2998 > 100 µM | COLO 205 > 100 µM | U-251 > 100 µM | BT-549 > 100 µM | MCF7 > 100 µM | SK-MEL-5 > 100 µM | DU-145 > 100 µM | K562 > 100 µM | RXF 393 > 100 µM | Hs-578T > 100 µM | LOX IMVI > 100 µM

CCOC(=O)Nn1c(C)nnc1CC#N
inactive: OVCAR-8 > 100 µM | HCT-116 > 100 µM | NCI-H23 > 100 µM | NCI-H460 > 100 µM | NCI-H522 > 100 µM | M14 > 100 µM | UACC-62 > 100 µM | RPMI-8226 > 100 µM | HOP-62 > 100 µM | HCC 2998 > 100 µM | U-251 > 100 µM | BT-549 > 100 µM | MCF7 > 100 µM | SK-MEL-5 > 100 µM | DU-145 > 100 µM | K562 > 100 µM | RXF 393 > 100 µM | Hs-578T > 100 µM | LOX IMVI > 100 µM

C[C@H]1CCCCC[C@@H]2CC(=O)CC2C(=O)CCC(=O)O1 (stereo partly specified)
inactive: OVCAR-8 > 100 µM | HCT-116 > 100 µM | NCI-H23 > 100 µM | NCI-H460 > 100 µM | NCI-H522 > 100 µM | M14 > 100 µM | UACC-62 6.68 µM | RPMI-8226 > 100 µM | HOP-62 > 100 µM | HCC 2998 > 100 µM | COLO 205 > 100 µM | U-251 > 100 µM | BT-549 > 100 µM | MCF7 > 100 µM | SK-MEL-5 > 100 µM | DU-145 > 100 µM | K562 > 100 µM | RXF 393 > 100 µM | Hs-578T > 100 µM

Brc1ccc2c(-c3csc(-c4c[nH]c5ccc(Br)cc45)n3)c[nH]c2c1
inactive: OVCAR-8 5.52 µM | HCT-116 3.64 µM | NCI-H23 2.87 µM | NCI-H460 2.44 µM | NCI-H522 2.11 µM | M14 3.12 µM | UACC-62 3.18 µM | RPMI-8226 3.44 µM | HOP-62 12.1 µM | HCC 2998 2.32 µM | COLO 205 2.88 µM | U-251 4.26 µM | BT-549 12.6 µM | MCF7 3.82 µM | SK-MEL-5 3.65 µM | DU-145 3.86 µM | K562 3.53 µM | RXF 393 3.02 µM | Hs-578T 5.78 µM | LOX IMVI 1.94 µM

COc1cc2oc(-c3ccc(O)cc3)cc(=O)c2c(OC)c1OC
inactive: OVCAR-8 > 100 µM | HCT-116 > 100 µM | NCI-H23 > 100 µM | NCI-H460 > 100 µM | NCI-H522 > 100 µM | M14 > 100 µM | UACC-62 > 100 µM | RPMI-8226 > 100 µM | HOP-62 > 100 µM | HCC 2998 > 100 µM | COLO 205 > 100 µM | U-251 > 100 µM | BT-549 > 100 µM | MCF7 > 100 µM | SK-MEL-5 > 100 µM | DU-145 > 100 µM | K562 > 100 µM | RXF 393 > 100 µM | Hs-578T > 100 µM | LOX IMVI > 100 µM

C/C(=C(/C)c1ccc(O)cc1)c1ccc(O)cc1 [DIMETHYLSTILBESTROL]
inactive: OVCAR-8 36.1 µM | HCT-116 83.2 µM | NCI-H23 43.6 µM | NCI-H460 49.8 µM | NCI-H522 > 100 µM | M14 45.3 µM | UACC-62 23.7 µM | RPMI-8226 34.9 µM | HOP-62 94 µM | HCC 2998 > 100 µM | COLO 205 > 100 µM | U-251 67.3 µM | BT-549 12.6 µM | MCF7 39.5 µM | SK-MEL-5 19.5 µM | DU-145 87.3 µM | K562 46 µM | RXF 393 56.8 µM | Hs-578T 24.5 µM

COc1ccc2c3c([nH]c2c1)[C@H](C=C(C)C)N1C(=O)[C@@H]2CCCN2C(=O)[C@@H]1C3 [FUMITREMORGIN]
inactive: OVCAR-8 64.4 µM | HCT-116 > 100 µM | NCI-H23 > 100 µM | NCI-H460 > 100 µM | NCI-H522 > 100 µM | M14 > 100 µM | UACC-62 87.5 µM | RPMI-8226 > 100 µM | HOP-62 47 µM | HCC 2998 37.2 µM | COLO 205 > 100 µM | U-251 73.1 µM | BT-549 > 100 µM | MCF7 > 100 µM | DU-145 > 100 µM | K562 > 100 µM | RXF 393 38.1 µM | Hs-578T 50.9 µM | LOX IMVI > 100 µM
